Patent publication US20060252798A1, “Metal ion chelators and therapeutic use thereof” (priority 2003, published 2006)
Where “and” joins values, the source holds several entries; their conditions need not be identical. Equal entries are not always repeated. Where two headings read alike, the source gives them in different places.

Assays:
[1] = tested on: SK-N-MC neuroepithelioma cells; test: 59Fe mobilization from prelabelled SK-N-MC neuroepithelioma cells; type: cell-based, human
Experimental: The effect of chelators on ^59Fe release from prelabelled cells was studied using standard procedures.^18 Cells were prelabelled with ^59Fe-transferrin (0.75 μM) for 3 h at 37° C. […] The overlying medium was then removed and placed into γ-counting tubes. The cells were removed from the petri dishes in 1 ml of BSS using a plastic spatula and transferred to a separate set of γ-counting tubes.
The ability of the compounds to mobilise ^59Fe from SK-N-MC neuroepithelioma cells was assessed after a 3 h labelling period with ^59Fe-Tf (0.75 μM) at 37° C. […]
DFO and 311 were used as internal standards.

[2] = tested on: SK-N-MC neuroepithelioma cells; test: MTT cellular proliferation assay, SK-N-MC; type: cell-based, human
Experimental: […] […] After this incubation, 0.01 mL of MTT was added to each well and the plates incubated for 2 h at 37° C. The cells were then solubilised by adding 0.1 mL of 10% SDS-50% isobutanol in 0.01 M HCl and the plates then read at 570 nm on a scanning multiwell spectrophotometer (Titertek Multiscan; Beckman Instruments Inc, California). MTT colour formation was directly proportional to the number of viable cells.
The effect of the compounds on the proliferation of SK-N-MC neuroepithelioma cells was examined using the MTT assay (described above).
(§1) Dp2mT served as a negative control.

[3] = tested on: SK-N-MC neuroepithelioma cells; test: 3H-thymidine incorporation by SK-N-MC cells; type: cell-based, human; conditions: 20 h incubation then 2 h label; Mean ± SD, 4 experiments
Experimental: (§2) After a 20 h incubation of the SK-N-MC cells with a selection of analogues, ^3H-thymidine, ^3H-leucine, or ^3H-uridine (1 μCi/ml) was added for 2 h at 37° C. The cells were detached from the 96 well plate using 1 mM EDTA in Ca(II)/Mg(II)-free PBS and collected and washed using a cell harvester (Tomtec Harvester 96, Linbrook, Queensland, Australia). Radioactivity was measured on a P-scintillation counter (LKB Wallace, Turku, Finland).

[4] = tested on: SK-N-MC neuroepithelioma cells; test: 3H-leucine incorporation by SK-N-MC cells; type: cell-based, human; conditions: 20 h incubation then 2 h label; Mean ± SD, 4 experiments
Experimental: as §2

[5] = tested on: SK-N-MC neuroepithelioma cells; test: 3H-uridine incorporation by SK-N-MC cells; type: cell-based, human; conditions: 20 h incubation then 2 h label; Mean ± SD, 3 experiments
Experimental: as §2

[6] = tested on: MCF-7 breast cancer cells; test: MTT cellular proliferation assay, MCF-7; type: cell-based, human
Experimental: […] […] […] After this incubation, 0.01 mL of MTT was added to each well and the plates incubated for 2 h at 37° C. The cells were then solubilised by adding 0.1 mL of 10% SDS-50% isobutanol in 0.01 M HCl and the plates then read at 570 nm on a scanning multiwell spectrophotometer (Titertek Multiscan; Beckman Instruments Inc, California). MTT colour formation was directly proportional to the number of viable cells.
as §1
(§3) Dp2mT served as a negative control as the methyl group at the 2-position hinders Fe-chelation.

[7] = tested on: Ndrg1; test: Ndrg1 expression in MCF-7 cells (Western blotting); type: cell-based, human; conditions: 25 μM, 24 h, MCF-7 cells (FIG. 16)
Experimental: FIG. 16. […] The expression of Ndrg1 and β-actin protein levels were assessed by Western blotting.
MCF-7 cells were incubated for 24 h with a range of metal ion chelators. […] Dp2mT was used as a negative control, […]

[8] = tested on: MRC-5 fibroblasts; test: MTT cellular proliferation assay, MRC-5 fibroblasts; type: cell-based, human
Experimental: (§4) The final concentration of the compounds was 0.39-50 μM. […] […] After this incubation, 0.01 mL of MTT was added to each well and the plates incubated for 2 h at 37° C. The cells were then solubilised by adding 0.1 mL of 10% SDS-50% isobutanol in 0.01 M HCl and the plates then read at 570 nm on a scanning multiwell spectrophotometer (Titertek Multiscan; Beckman Instruments Inc, California). MTT colour formation was directly proportional to the number of viable cells.
The MRC-5 cell type is a normal human lung fibroblast cell strain that is mortal and senesces after a number of passages in vitro. The SK-N-MC neuroepithelioma cell type is immortal.
as §1

[9] = tested on: SK-Mel-28 melanoma cells; test: MTT cellular proliferation assay, SK-Mel-28; type: cell-based, human
Experimental: as §4, §1, §3

[10] = tested on: SK-N-MC neuroepithelioma cells; test: 59Fe uptake from 59Fe-transferrin by SK-N-MC neuroepithelioma cells; type: cell-based, human; conditions: 25 μM, 3 h at 37° C. (FIG. 11B)
Experimental: The cells were then placed on ice and washed four times with ice-cold Hank's balanced salt solution (BSS) to remove non-specifically bound ^59Fe-Tf. Cells were then incubated with the general protease, pronase (1 mg/ml), for 30 min at 4° C. to remove membrane-bound ^59Fe and Tf.
PCTH was used as an internal control.

[11] = tested on: H69AR lung cancer; test: MTT cellular proliferation assay, H69AR; type: cell-based; conditions: Homo sapiens, H69AR, 0-50 μM, 72 h, 1 experiment
Experimental: as §4
(§5) At the end of the incubation period, cell density was determined by the MTT assay (described above).

[12] = tested on: IMR-32 Neuroblastoma; test: MTT cellular proliferation assay, IMR-32; type: cell-based; conditions: Homo sapiens, IMR-32, 0-50 μM, 72 h, 1 experiment
Experimental: as §4, §5

[13] = tested on: HEP G2 Hepatoma; test: MTT cellular proliferation assay, HEP G2; type: cell-based; conditions: Homo sapiens, HepG2, 0-50 μM, 72 h, 1 experiment
Experimental: as §4, §5

[14] = tested on: DU 145 prostate cancer; test: MTT cellular proliferation assay, DU 145; type: cell-based; conditions: Homo sapiens, DU-145, 0-50 μM, 72 h, 2 experiments
Experimental: as §4, §5

[15] = tested on: NCI H2452 mesothelioma; test: MTT cellular proliferation assay, NCI H2452; type: cell-based; conditions: Homo sapiens, NCI-H2452, 0-50 μM, 72 h, 3 experiments
Experimental: as §4, §5

[16] = tested on: GADD45 and WAF1 mRNA; test: Northern blot of WAF1 and GADD45 mRNA expression in SK-N-MC cells; type: cell-based, human; conditions: DFO 100 μM, other chelators 25 μM, 20 h at 37° C. (FIG. 7)
Experimental: FIG. 7. […] Northern blotting was performed using standard procedures (see Example 6).
Northern blot analysis was performed by isolating total RNA using the Total RNA Isolation Reagent (Advanced Biotechnologies Ltd, Surrey, United Kingdom). The membranes were hybridised with probes specific for human WAF1, GADD45, and β-actin. The WAF1 probe consisted of a 1 kb fragment from pSXV (ATCC; Cat. No. 79928). The GADD45 probe consisted of a 760 bp fragment from human GADD45 cDNA cloned into pHu145B2 (kindly supplied by Dr. Albert Fornace, National Cancer Institute, NIH, Maryland). The β-actin probe consisted of a 1.4 kb fragment from human β-actin cDNA cloned into pBluescript SK− (ATCC; Cat. No. 37997).

[17] = Table 2, MTT assay, 90 h incubation, Mean ± SD, 4 experiments, read-out: IC50 Values of Chelators
[18] = Homo sapiens, SK-N-MC, 90 h, Table 2, MTT assay, 90 h incubation, Mean ± SD, 4 experiments, read-out: IC50 Values of Chelators
[19] = Table 3, 0-25 μM, 72 h, MTT, mean ± SD, read-out: IC50 SK-N-MC neuroepithelioma
[20] = Table 3, normal cells, 72 h, MTT, read-out: IC50 MRC-5 fibroblasts
[21] = Table 3, 72 h, MTT, mean ± SD, read-out: IC50 MCF-7 breast cancer
[22] = Homo sapiens, MCF7, values given in Example 8 text, read-out: IC50, anti-proliferative activity in MCF-7 cells

## 2-pyridylketone 2-thiophenecarboxaldehyde hydrazone [PCTH]
[1]; chelator 1 μM, 3 h reincubation at 37° C. (FIG. 5A)
  cellular 59Fe released: 10%
[2]; [17]
  IC50: 48 ± 4 µM
[3]
  3H-Thymidine Incorporation: 64 ± 14 % Control
[4]
  3H-Leucine Incorporation: 21 ± 6 % Control
[5]
  3H-Uridine Incorporation: 43 ± 2 % Control

## 2-quinolinecarboxaldehyde 2-thiophenecarboxaldehyde hydrazone [QCTH]
[2]; [17]
  IC50: > 50 µM
[3]
  3H-Thymidine Incorporation: 83 ± 6 % Control

## c1ccc(-c2ccccn2)nc1 [dipyridyl]
[6]; Homo sapiens, MCF7, read-out: IC50, anti-proliferative activity in MCF-7 cells
  IC50: > 250 µM
[7]
  up-regulation of Ndrg1: no effect

## O=C(NN=Cc1ccc2ccccc2n1)c1cccc(Br)c1 [QCBBH, 2-quinolinecarboxaldehyde 3-bromobenzoyl hydrazone]
[2]; [18]
  IC50: 49 ± 3 µM
[3]
  3H-Thymidine Incorporation: 81 ± 10 % Control

## O=C(NN=Cc1ccc2ccccc2n1)c1ccc(O)cc1 [QCHH, 2-quinolinecarboxaldehyde 4-hydroxybenzoyl hydrazone]
[2]; [18]
  IC50: > 50 µM
[3]
  3H-Thymidine Incorporation: 41 ± 2 % Control

## CC(C)(S)[C@@H](N)C(=O)O [penicillamine]
[7]
  up-regulation of Ndrg1: no effect

## O=C(NN=Cc1ccc2ccccc2n1)c1ccncc1 [QCIH, 2-quinolinecarboxaldehyde isonicotinoyl hydrazone]
[1]; DFO 100 μM, other chelators 50 μM, 3 h (FIG. 3)
  59Fe mobilisation from prelabelled cells: comparable cellular ^59Fe mobilisation to PCIH
[2]; [18]
  IC50: 49 ± 3 µM
[3]
  3H-Thymidine Incorporation: 77 ± 9.5 % Control

## O=C(NN=Cc1c(O)ccc2ccccc12)c1cccnc1 [311m, 2-hydroxy-1-naphthylaldehyde nicotinoyl hydrazone]
[2]; [19]
  IC50: 0.8 ± 0.2 µM
[8]; [20]
  IC50: > 25 µM
[9]; Table 3, 72 h, mean ± SD
  IC50: 1.4 ± 0.4 µM
[6]; [21]
  IC50: 0.9 ± 0.4 µM

## Cc1c(O)c(=O)ccn1C [L1, deferiprone]
[6]; [22]
  IC50: 180 µM
[7]
  up-regulation of Ndrg1: no effect

## Nc1ccc(C(=O)NN=Cc2ccc3ccccc3n2)cc1 [QCAH, 2-quinolinecarboxaldehyde 4-aminobenzoyl hydrazone]
[2]; [18]
  IC50: > 50 µM
[3]
  3H-Thymidine Incorporation: 43 ± 2 % Control

## CN(N=C(c1ccccn1)c1ccccn1)C(N)=S [Dp2mT, di-2-pyridylketone 2-methyl-3-thiosemicarbazone]
[10]
  prevention of 59Fe uptake from 59Fe-Tf: little effect
[2]; [19]
  IC50: > 25 µM
[8]; [20]
  IC50: > 25 µM
[9]; Table 3, 72 h, mean ± SD
  IC50: > 25 µM
[6]; [21]
  IC50: > 25 µM
[7]
  up-regulation of Ndrg1: no effect

## COc1cccc2c1C(=O)c1c(O)c3c(c(O)c1C2=O)C[C@@](O)(C(=O)CO)C[C@@H]3O[C@H]1C[C@H](N)[C@H](O)[C@H](C)O1 [Dox, doxorubicin]
[2]; Homo sapiens, SK-N-MC, 72 h, Table 3, 0-25 μM, 72 h, MTT, mean ± SD, read-out: IC50 SK-N-MC neuroepithelioma
  IC50: 0.02 µM
[9]; Homo sapiens, SK-MEL-28, 72 h, Table 3, mean ± SD
  IC50: 0.35 ± 0.09 µM
[6]; Homo sapiens, MCF7, 72 h, Table 3, 72 h, MTT, mean ± SD, read-out: IC50 MCF-7 breast cancer
  IC50: 0.6 ± 0.2 µM
[11]
  IC50: 0.39 µM
[12]
  IC50: 0.01 µM
[13]
  IC50: 2.61 µM
[14]
  IC50: 0.09 µM
[15]
  IC50: 0.17 µM

## O=C(O)CN(CCN(CC(=O)O)CC(=O)O)CC(=O)O [EDTA, ethylenediamine tetraacetic acid]
[6]; [22]
  IC50: > 250 µM
[7]
  up-regulation of Ndrg1: no effect

## O=C(NN=Cc1ccc2ccccc2n1)c1ccccc1 [QCBH, 2-quinolinecarboxaldehyde benzoyl hydrazone]
[2]; [18]
  IC50: 50 ± 1 µM
[3]
  3H-Thymidine Incorporation: 64 ± 5 % Control

## O=C(NN=C(c1ccccn1)c1ccccn1)c1cccc(Br)c1 [PKBBH, di-2-pyridylketone 3-bromobenzoyl hydrazone]
[2]; [17]
  IC50: 1 ± 1 µM
[8]; Homo sapiens, MRC5, Example 4c, FIG. 6, read-out: IC50 values in fibroblasts
  IC50: 8 µM
[3]
  3H-Thymidine Incorporation: 0.02 % Control and 0.02 ± 0.01 % Control
[4]
  3H-Leucine Incorporation: 8 ± 1 % Control
[5]
  3H-Uridine Incorporation: 3 ± 1 % Control
[16]
  GADD45 and WAF1 mRNA expression: pronounced effect

## O=C(NN=C(c1ccccn1)c1ccccn1)c1ccccc1 [PCBH, 2-pyridylketone benzoyl hydrazone]
[2]; [17]
  IC50: 46 ± 7 µM
[3]
  3H-Thymidine Incorporation: 72 ± 16 % Control
[4]
  3H-Leucine Incorporation: 30 ± 13 % Control
[5]
  3H-Uridine Incorporation: 31 ± 9 % Control
[16]
  GADD45 and WAF1 mRNA expression: little effect

## O=C(NN=C(c1ccccn1)c1ccccn1)c1cccc(Br)c1 [PCBBH, 2-pyridylketone 3-bromobenzoyl hydrazone]
[2]; [17]
  IC50: 40 ± 12 µM
[16]
  GADD45 and WAF1 mRNA expression: up-regulation
